Reference: ChEMBL document CHEMBL1143301, “Novel HDAC6 isoform selective chiral small molecule histone deacetylase inhibitors” (Bioorg Med Chem Lett, 2009)
Active and inactive are the calls of the source. No cut-off for these calls is given here.

Experiments:
[1] = system: T-24; assay: Induction of alpha tubulin acetylation in human T24 cells; assay type: functional, cell-based
[2] = species: Homo sapiens; assay: Selectivity ratio of IC50 for human recombinant histone deacetylase 2 to IC50 for human recombinant histone deacetylase 6
[3] = biological target: Histone deacetylase 2 (Homo sapiens, UniProt Q92769)
Sequence of Histone deacetylase 2 (Q92769 whole entry): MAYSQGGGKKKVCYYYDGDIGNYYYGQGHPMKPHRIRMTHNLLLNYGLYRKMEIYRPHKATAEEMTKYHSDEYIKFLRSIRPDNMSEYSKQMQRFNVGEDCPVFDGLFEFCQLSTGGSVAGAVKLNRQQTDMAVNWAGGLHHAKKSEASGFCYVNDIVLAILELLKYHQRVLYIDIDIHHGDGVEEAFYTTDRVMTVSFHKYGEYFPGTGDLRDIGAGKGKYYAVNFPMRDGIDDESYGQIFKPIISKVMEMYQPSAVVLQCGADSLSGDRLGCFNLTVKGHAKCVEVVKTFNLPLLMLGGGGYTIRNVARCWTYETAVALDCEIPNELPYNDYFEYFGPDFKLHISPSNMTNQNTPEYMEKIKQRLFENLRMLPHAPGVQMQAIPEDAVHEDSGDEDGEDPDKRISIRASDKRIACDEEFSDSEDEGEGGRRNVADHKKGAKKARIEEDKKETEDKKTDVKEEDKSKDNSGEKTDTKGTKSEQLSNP
Description: Inhibition of human recombinant histone deacetylase 2

[4] = biological target: T1, Protein deacetylase HDAC6 (Homo sapiens, UniProt Q9UBN7)
T1 sequence (Q9UBN7 whole entry): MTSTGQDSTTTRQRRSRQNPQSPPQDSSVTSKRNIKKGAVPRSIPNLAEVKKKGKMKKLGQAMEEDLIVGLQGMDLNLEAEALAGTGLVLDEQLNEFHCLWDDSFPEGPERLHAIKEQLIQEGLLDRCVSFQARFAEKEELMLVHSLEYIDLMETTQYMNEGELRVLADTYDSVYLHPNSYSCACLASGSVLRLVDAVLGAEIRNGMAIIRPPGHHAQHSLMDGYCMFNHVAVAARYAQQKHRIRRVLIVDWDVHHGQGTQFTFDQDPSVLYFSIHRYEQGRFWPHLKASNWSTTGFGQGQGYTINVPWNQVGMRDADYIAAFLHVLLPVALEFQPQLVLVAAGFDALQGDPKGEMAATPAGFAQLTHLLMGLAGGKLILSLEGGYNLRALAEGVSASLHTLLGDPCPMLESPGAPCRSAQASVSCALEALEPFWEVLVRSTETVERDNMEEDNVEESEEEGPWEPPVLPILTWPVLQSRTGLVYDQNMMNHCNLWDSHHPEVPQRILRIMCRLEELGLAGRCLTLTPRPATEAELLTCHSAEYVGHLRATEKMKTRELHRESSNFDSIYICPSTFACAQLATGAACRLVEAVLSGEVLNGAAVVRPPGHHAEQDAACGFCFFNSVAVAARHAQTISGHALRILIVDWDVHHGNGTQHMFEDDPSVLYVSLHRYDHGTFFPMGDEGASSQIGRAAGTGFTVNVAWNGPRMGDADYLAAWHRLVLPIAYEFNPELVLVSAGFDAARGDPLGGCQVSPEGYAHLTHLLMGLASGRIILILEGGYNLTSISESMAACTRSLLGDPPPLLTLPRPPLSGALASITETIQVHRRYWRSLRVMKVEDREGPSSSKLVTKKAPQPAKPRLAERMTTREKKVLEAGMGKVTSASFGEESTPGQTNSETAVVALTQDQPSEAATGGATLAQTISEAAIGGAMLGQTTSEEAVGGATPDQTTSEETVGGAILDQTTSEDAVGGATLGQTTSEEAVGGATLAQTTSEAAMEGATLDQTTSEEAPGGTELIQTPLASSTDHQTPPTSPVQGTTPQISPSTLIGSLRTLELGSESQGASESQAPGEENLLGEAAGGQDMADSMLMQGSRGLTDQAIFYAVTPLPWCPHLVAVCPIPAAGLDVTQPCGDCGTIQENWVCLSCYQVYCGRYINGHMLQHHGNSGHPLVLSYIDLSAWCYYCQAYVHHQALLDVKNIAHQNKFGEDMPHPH
Description: Inhibition of human recombinant histone deacetylase 6

[5] = biological target: T2, Histone deacetylase 8 (Homo sapiens, UniProt Q9BY41); assay: Inhibition of human recombinant histone deacetylase 8
T2 sequence (Q9BY41 whole entry): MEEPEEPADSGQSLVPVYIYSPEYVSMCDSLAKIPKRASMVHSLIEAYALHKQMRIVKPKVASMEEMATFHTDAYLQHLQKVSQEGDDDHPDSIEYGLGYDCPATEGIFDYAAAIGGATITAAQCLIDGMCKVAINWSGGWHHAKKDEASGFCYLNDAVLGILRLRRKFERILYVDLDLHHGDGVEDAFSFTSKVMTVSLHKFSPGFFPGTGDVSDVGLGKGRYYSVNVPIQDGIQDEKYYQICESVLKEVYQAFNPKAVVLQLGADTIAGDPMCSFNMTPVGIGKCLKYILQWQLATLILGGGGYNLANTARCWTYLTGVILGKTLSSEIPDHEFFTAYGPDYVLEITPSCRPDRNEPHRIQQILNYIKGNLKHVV

[6] = system: T-24; assay: Induction of histone H3 acetylation in human T24 cells; assay type: functional, cell-based
[7] = species: Homo sapiens; assay: Selectivity ratio of IC50 for human recombinant histone deacetylase 8 to IC50 for human recombinant histone deacetylase 6
[8] = system: T-24; assay: Selectivity ratio of EC50 for histone H3 acetylation to EC50 for alpha-tubulin acetylation in human T24 cells
[9] = system: T-24; assay: Induction of alpha tubulin acetylation in human T24 cells at 1 uM preincubated 16 hrs before whole-cell lysate by Western blot analysis; assay type: functional, cell-based

| Structure (SMILES) | EC50 [1] | Ratio IC50 [2] | IC50 [3] | IC50 [4] | IC50 [5] | EC50 [6] | Ratio IC50 [7] | Ratio EC50 [8] | Selectivity Index [8] | Activity [9] |
| --- | --- | --- | --- | --- | --- | --- | --- | --- | --- | --- |
| O=C(NO)c1ccc(CN2C(=O)CNC(=O)[C@H]2Cc2cccs2)cc1 | 2000 nM | 22 | 3470 nM | 160 nM | 440 nM | 9000 nM | 3 | – | – | – |
| CC(C)(C)OC(=O)NCCCC[C@@H]1C(=O)Nc2ccccc2N1Cc1ccc(C(=O)NO)cc1 | 90 nM | 34 | 1480 nM | 40 nM | 1150 nM | 6750 nM | 27 | 75 | – | – |
| O=C(NO)c1ccc(CN2c3ccccc3NC(=O)[C@@H]2Cc2cccs2)cc1 | 230 nM | 5 | 1480 nM | 310 nM | 1190 nM | 2300 nM | 4 | – | – | – |
| O=C(NO)c1ccc(CN2c3ccccc3NC(=O)[C@H]2Cc2ccc(F)c(F)c2)cc1 | – | 11 | 460 nM | 40 nM | 420 nM | – | 10 | – | – | – |
| O=C(NO)c1ccc(CN2c3ccccc3NC(=O)[C@@H]2Cc2ccccc2)cc1 | 320 nM | 2 | 460 nM | 220 nM | 210 nM | 1900 nM | 1 | – | – | – |
| O=C(NO)c1ccc(CN2c3ccccc3NC(=O)[C@H]2Cc2ccc(O)cc2)cc1 | – | 41 | 330 nM | 10 nM | 730 nM | – | 91 | – | – | – |
| O=C1CN(Cc2ccc(C(=O)NO)cc2)c2ccccc2N1 | 1010 nM | 4 | 560 nM | 150 nM | 520 nM | 3580 nM | 3 | – | – | – |
| O=C(CCCCCCC(=O)Nc1ccc([C@H]2O[C@@H](CSc3nc(-c4ccccc4)c(-c4ccccc4)o3)C[C@@H](c3ccc(CO)cc3)O2)cc1)NO [TUBACIN] | – | – | – | – | – | – | – | – | 75 | – |
| O=C(NO)c1ccc(CN2C(=O)CNC(=O)[C@H]2Cc2c[nH]c3ccccc23)cc1 | 2870 nM | 17 | 1810 nM | 110 nM | 1210 nM | 12100 nM | 11 | – | – | – |
| CC(C)(C)Oc1ccc(C[C@@H]2C(=O)Nc3ccccc3N2Cc2ccc(C(=O)NO)cc2)cc1 | 80 nM | 28 | 1440 nM | 50 nM | 250 nM | 2750 nM | 5 | – | >13 | – |
| O=C(NO)c1ccc(CN2c3ccccc3NC(=O)[C@H]2Cc2ccccc2)cc1 | 40 nM | 26 | 260 nM | 10 nM | 530 nM | 520 nM | 53 | – | >13 | – |
| CC(/C=C/C(=O)NO)=C\[C@@H](C)C(=O)c1ccc(N(C)C)cc1 (racemic) [TRICHOSTATIN] | 10 nM | – | – | – | – | 10 nM | – | – | – | – |
| O=C(NO)c1ccc(CN2C(=O)CNC(=O)[C@H]2Cc2ccccc2)cc1 | 1490 nM | 33 | 5540 nM | 170 nM | 2340 nM | 23000 nM | 14 | – | >13 | – |
| O=C(NO)c1ccc(CN2c3ccccc3NC(=O)[C@H]2Cc2cccs2)cc1 | 70 nM | 21 | 870 nM | 40 nM | 690 nM | 1220 nM | 17 | – | >13 | Active |
| O=C(NO)c1ccc(CN2c3ccccc3NC(=O)[C@H]2CCc2ccccc2)cc1 | – | 40 | 520 nM | 10 nM | 640 nM | – | 49 | – | – | – |
